Assays:
[1] = system: glial cultures (astrocytes); assay: Glutamate production in intact glial cultures with added glutamine; format: cell-based, mouse (Swiss Webster)
Procedure: The glutamate concentration of glial cultures was maintained below 1 μM when cells were maintained in the absence or presence of 2 mM added glutamine or when subjected to hypoxic conditions (see below). The medium glutamate concentration remained unchanged between 7 and 24 h after medium change and was 0.14±0.04 μM and 0.36±0.06μM in medium containing 0.15 mM or 2.0 mM glutamine, respectively. Based on these steady state concentrations and the measured rate of glutamate uptake, the rates of glutamate production in the absence and presence of added glutamine were calculated to be 0.012 μM/min (4.8 pmol/min) and 0.030 μM/min (12 pmol/min), respectively. Thus, the calculated rates of glutamate production by glial cultures are only slightly affected by the addition of glutamine and are similar to those observed in intact neurons cultured in the absence of added glutamine.
Pre-column derivatization with o-phthalaldehyde (OPA, Sigma) and separation by reversed phase HPLC was used. A Gilson HPLC was fitted with a Hewlett-Packard model 1046A fluorimetric detector (excitation 340 nm, emission 420 nm). Medium was collected from cell culture at various times, and frozen at -80° C., prior to dilution of 5 or 10 μl into auto-sampler vials containing 40 or 45 μl dimethylformamide:water 1:3 (derivatives with 2-mercaptoethanol) or 1:9 (derivatives with N-acetyl-L-cysteine). […]
In cultures where glutamate concentrations are (within error) constant, d[Glu]/dt is close to zero, and cellular production of medium glutamate is balanced by its removal, such that glutamate production can be calculated from the steady state equation: […]
Calculations were performed using the slopes of the regression lines which describe the rate constants for glutamate removal and the mean values for culture medium glutamate concentrations. […] For comparative purposes, glutamate production rates can be expressed as pmol of glutamate produced per min in each culture. […]

[2] = system: ischemic penumbra (dialysate glutamate); assay: In vivo microdialysis of ischemic penumbra after MCAO; set-up: species or system rat; conditions: 10 mM glutamine plus 20 mM sodium phosphate, 1 h; ±115%
Procedure: In further microdialysis experiments, exogenous glutamine was added to the ischemic penumbra via the probe, and dialysis glutamate was measured, as described in Example 7. When 10 mM glutamine plus 20 mM sodium phosphate were perfused into the penumbra for one hour, dialysate glutamate was elevated 315% as compared to control (±115%). […] The effects on glutamate were much more pronounced than on other amino acids measured; therefore, these studies provided further support for the involvement of extracellular glutaminase activity in producing the elevated levels of glutamate in cortical tissue undergoing ischemic damage.
The middle cerebral arteries of rats were occluded as in EXAMPLE 7, and the rats were returned to their cages overnight. The next morning, dialysis probes ([…], 2 mm length, 20,000 dalton cutoff) were inserted into ischemic penumbra (cortex) and perfused with artificial CSF at 3 μl/min for 1 h prior to collection of 10 minute fractions of dialysate. The effectiveness of the occlusion and the placement of probes were verified by TTC staining of 1 mm sections at the conclusion of the experiment. Amino acids in the dialysate were measured by reverse phase HPLC with fluorescence detection, after derivatization of the dialysates with o-phthaldialdehyde and N-acetyl-L-cysteine […]

[3] = system: pure neuronal cultures (cortical neurons) exposed to glutamine
[4] = system: pure neuronal cultures (cortical neurons) exposed to glutamine; assay: cells; conditions: Mus musculus, Cortical neurone, 24 h, read-out: neuronal LDH release
neuronal cultures = assay: Glutamate production by intact and damaged neuronal cultures with added glutamine; format: cell-based, mouse (Swiss Webster); conditions: for Glutamate concentration (in words) / Glutamate production (S): 2 mM Gln
Procedure: When 2 mM glutamine is added to intact neuronal cultures, the rate at which glutamate accumulates in the culture medium increases with time (FIG. 2). Since the clearance of medium glutamate by neuronal cultures is extremely slow, one estimate of the rate of glutamate production by neurons exposed to glutamine can be obtained from the initial rate of glutamate accumulation. Using the difference in glutamate concentrations at 1 and 15 min after glutamine addition, a value of 0.032±0.006 μM/min (12.8 pmol/min) was obtained. Since glutamine exposure itself eventually causes neuronal death and high rates of glutamine hydrolysis, this estimate of glutamate production should be viewed as an upper limit. However, this value is similar to that obtained by comparing glutamate production by glial and mixed neuronal-glial cultures exposed to glutamine (see below).
In the absence of added glutamine (i.e., in the 0.15 mM glutamine manufactured by the neuronal cultures), glutamate production into the medium of cultures lysed by freezing and thawing occurred at a rate of 0.035±0.006 μM/min (14 pmol/min). […] Thus, damaged neurons incubated in 2 mM glutamine produce within 6-8 min an amount equal to that released by freeze-thawing.
Pre-column derivatization with o-phthalaldehyde (OPA, Sigma) and separation by reversed phase HPLC was used. A Gilson HPLC was fitted with a Hewlett-Packard model 1046A fluorimetric detector (excitation 340 nm, emission 420 nm). Medium was collected from cell culture at various times, and frozen at -80° C., prior to dilution of 5 or 10 μl into auto-sampler vials containing 40 or 45 μl dimethylformamide:water 1:3 (derivatives with 2-mercaptoethanol) or 1:9 (derivatives with N-acetyl-L-cysteine). For analysis of the derivatives formed with 2-mercaptoethanol, samples were reacted according to published methods (Newcomb, R. (1989) LC GC 7, 570-578; Lindroth, P., and Mopper. K., (1979) Anal. Chem. 51, 1667-1674.), and a gradient of 0-40% methanol in 1.25 mM sodium phosphate pH 6.2 over 20 min was used to elute the derivatives from a 4.5×250 mm Beckman Ultrasphere octadecylsilica column (dp 5 μm) at 1 ml/min. For analysis of the derivatives formed with N-acetyl-L-cysteine (Bruckner), samples were reacted with 25 μl of 1 mg/ml OPA, and 50 μl of 1 mg/ml N-acetyl-L-cysteine (Fluka) in 0.5 M potassium borate pH 10.0. Chromatography was carried out on a 4.5×250 mm Phenomonex Primesphere "HC" octadecylsilica column (dp 5 μm) using a gradient of 0-35% methanol in 15 mM sodium phosphate pH 6.2 (0.13% tetrahydrofuran) over 65 minutes at 1 ml/min. It was shown for each of the experimental conditions (ie. glial and control and damaged neuronal and mixed cultures) that both analytical systems gave results for glutamate and glutamine measurements which were, within error, identical.
Glutamate concentrations were converted to units of pmol/μl of culture medium, or μM. In the absence of cellular uptake (ie, in damaged neuronal cultures), the rate of glutamate production was obtained directly from the measurements of the amounts of glutamate in culture medium at various times.

SMILES: NC(=O)CC[C@H](N)C(=O)O [Gln, glutamine]
- Glutamate concentration ([1]; Table 2, glial, 2 mM Gln): 0.36 ± 0.06
- Glutamate production (S) ([1]; Table 2, glial, 2 mM Gln): 0.03
- glutamate production per culture ([1]; glial, 2 mM glutamine): 12 pmol/min
- dialysate glutamate elevation vs control [2]: 315%
- medium glutamate [3]: 197 ± 23 μM Glu
- cytotoxicity at 2000 µM [4]: 62 ± 22%
- glutamate production by damaged neurons vs intact neurons or glia (neuronal cultures; 2 mM glutamine): 10-30 fold
- Glutamate concentration (in words) (neuronal cultures; NMDA-treated neurons): increases linearly
- Glutamate production (S) (neuronal cultures; NMDA-treated neurons): 0.54 ± 0.09 µM/min
- glutamate production per culture (neuronal cultures; NMDA-treated neurons, 2 mM glutamine): 216 pmol/min
- Glutamate concentration (in words) (neuronal cultures; freeze-thaw damaged neurons): increases linearly
- Glutamate production (S) (neuronal cultures; freeze-thaw damaged neurons): 0.79 ± 0.08 µM/min
- glutamate production per culture (neuronal cultures; freeze-thawed neurons, 2 mM glutamine): 316 pmol/min
- Glutamate concentration (in words) (neuronal cultures; intact neurons): increases
- Glutamate production (S) (neuronal cultures; intact neurons): 0.032 ± 0.006 µM/min
- glutamate production per culture (neuronal cultures; intact neurons, 2 mM glutamine): 12.8 pmol/min

From patent publication US6310093A (priority 1998, dated 2001)
